Measured values reported in patent publication US6159983A, “Method and composition for treatment of inflammatory bowel disease” (University of Florida, priority 1998, dated 2000).

Columns and labels:
[1] = Iron binding in a test tube
[2] = Iron chelation when given to rats orally or subcutaneously; format: in vivo; conditions: orally or subcutaneously (s.c.)
[3] = tested on: acetic acid-induced colitis; assay: Acetic acid-induced colitis in the rat (pre-treatment, intrarectal); format: in vivo, rat (Sprague-Dawley); conditions: for effectiveness against acetic acid-induced colitis: i.r., 650 μmol/kg, before acetic acid, rat
Text: A typical model of IBD in acetic acid-induced colitis in the rat has been described by Krawisz et al in Amer. J. Proc. Gastro. Col. Rec. Surg., Vol. 31, pages 11-18 (1980); and by Sharon et al in Gastroenterology, Vol. 88, pages 55-63 (1985) and Vol. 86, pages 453-460 (1984). Acetic acid-induced colitis is characterized by the movement of inflammatory cells into the colon, with the number of such cells in the mucosa being measured by the activity of myeloperoxidase, a marker enzyme for these cells. Positive desirable activity is indicated by a reduction in the high levels of myeloperoxidase caused by acetic acid.
Typically, Sprague-Dawley rats from Charles River Laboratories, Portage, Michigan (either sex, weight approximately 250 g) are dosed with test compounds and controls. Thereafter, the rats are given an intracolonic enema of acetic acid which produces a severe inflammatory response in the colon of a healthy rat characterized by rectal bleeding, diarrhea, epithelial erosions and destructions of crypts and gland cells. Twenty-four hours later, the test and control animals are sacrificed and the distal ten centimeters of the colons are removed and opened longitudinally. The tissue lesions contained within the removed, opened section of the colons are scored.
After the systematic evaluation of the impact of various fasting times, use of vehicles, the time interval between pre-treatment and administration of the acetic acid and altering the concentration of acetic acid, the final protocol for the experiments is to fast the rats for 30 hours in hanging wire cages, anesthetize the animals with sodium pentobarbital, administer the test drug 1 cc intrarectally (i.r.) either as a suspension or a solution in water, and to give the acetic acid (7.5% in water) 1 cc i.r. 30 minutes later. The rats are sacrificed 24 hours later and the colons are removed and assessed for damage.

[4] = tested on: acetic acid-induced colitis; assay: Reversal studies: compound given 30 minutes after acetic acid; format: in vivo; conditions: given 30 minutes after 2.5% acetic acid; rat
[5] = Preliminary acute toxicity studies in mice; format: in vivo
[6] = patients treated long-term with 6MP or AZA for IBD; cited from earlier work
Crohn's disease = conditions: multiple controlled trials and a recent meta-analysis; cited from earlier work
ulcerative colitis = conditions: cited from earlier work

Cc1ccc(O)c(C2=NC(C(=O)O)CC2)c1 (centres unmarked) [2H-pyrrolecarboxylic acid, 3,4-dihydro-5-(2-hydroxy-5-methylphenyl)-2H-pyrrole-2-carboxylic acid]
iron binding [1]: binds iron remarkably well | activity as an iron chelator [2]: inactive | dose response: prevention of severe lesions ([3]; 162.5 μmol/kg (41.5 mg/kg) at 1 cc i.r., rats): severe lesions being prevented in a majority of rats | head-to-head comparison with 5-ASA or its commercially available formulation (Rowasa) ([3]; 650 μmol/kg vs. 1742 mmol/kg (so in the source), FIGS. 7 and 8): far superior even at a much lower dose | damage to the colons compared with control rats ([3]; FIGS. 2-8): considerably less damage | damage in the colons of the rats, expanded experiments ([3]; expanded experiments): very little damage | damage in the colons of the test animals ([3]; i.r. at 650 μmol/kg (165 mg/kg N-methylhydroxamate or 166 mg/kg 2H-pyrrolecarboxylic acid), 30 minutes before acetic acid, FIGS. 2-8): very little damage | lesions compared with the control group [4]: less severe and less active | state of the lesions (resolution, histology) [4]: apparently resolving and with some lamina proprial fibrosis and considerable hyper-plasia of submucosal lymphoid tissue | deaths ([5]; i.p., at doses up to 1 g/kg): no deaths | acute toxicity ([5]; preliminary): virtually non-toxic

Sc1ncnc2nc[nH]c12 [6MP, 6-Mercaptopurine]
dose-related leukopenia, patients affected [6]: 2-5% | efficacy in Crohn's disease (Crohn's disease): support the efficacy

Cn1cnc([N+](=O)[O-])c1Sc1ncnc2nc[nH]c12 [AZA, azathioprine]
dose-related leukopenia, patients affected [6]: 2-5% | efficacy in Crohn's disease (Crohn's disease): support the efficacy | use in ulcerative colitis (ulcerative colitis; several controlled trials): support the use

CC(=O)N(O)CCCCCNC(=O)CCC(=O)N(O)CCCCCNC(=O)CCC(=O)N(O)CCCCCN [DFO, reference compound]
effectiveness against acetic acid-induced colitis [3]: ineffective

C[C@]1(C(=O)O)CSC(c2ncccc2O)=N1 [DFT, reference compound]
effectiveness against acetic acid-induced colitis [3]: ineffective

Nc1ccc(O)c(C(=O)O)c1 [mesalamine, 5-aminosalicylic acid]
effectiveness for the treatment of acute UC (ulcerative colitis): effective to some degree in some patients

O=C(O)c1cc(/N=N/c2ccc(S(=O)(=O)Nc3ccccn3)cc2)ccc1O [sulfasalazine]
effectiveness for the treatment of acute UC (ulcerative colitis): effective to some degree in some patients
